The test system of assay [1] is CDK4. To be noted: Finn et al. (2009); cited from earlier work.
For assay [2], the system named is CDK6. To be noted: Finn et al. (2009); cited from earlier work.
Assay [3] has as its system H727. In words: CellTiter-Glo proliferation/survival assay, H727. Type of assay: cell-based. To be noted: Homo sapiens, NCI-H727, 120 h, 5 days, 0.005-100 nM. Here is the method: (§1) The panRAS antibody drug conjugates were tested against the following cancer cell lines: • LU65: JCRB No. JCRB0079 cultured in RPMI-1640+10% FBS • HPAC: ATCC No. CRL-2119 cultured in DMEM:HAM's F12+5% FBS • NCI-H727: ATCC No. CRL-5815 cultured in RPMI-1640+10% FBS • SW1271: ATCC No. CRL-2177 cultured in DMEM+10% FBS
(§2) The ability of the panRAS antibody drug conjugates to inhibit cell proliferation and survival was assessed using the Promega CellTiter-Glo® proliferation assay.
(§3) Cell lines were cultured in media that is optimal for their growth at 5% CO2, 37° C. in a tissue culture incubator. Prior to seeding for the proliferation assay, the cells were split at least 2 days before the assay to ensure optimal growth density. On the day of seeding, cell viability and cell density were determined using a cell counter (Vi-Cell XR Cell Viability Analyzer, Beckman Coulter). […] Plates were incubated at 5% CO2, 37° C. for 5 days in a tissue culture incubator, after which cell viability was assessed through the addition of 25 μL of CellTiter Glo® (Promega, cat #G7573), a reagent which lyses cells and measures total adenosine triphosphate (ATP) content. Plates were incubated at room temperature for 10 minutes to stabilize luminescent signals prior to reading using a luminescence reader (EnVision Multilabel Plate Reader, PerkinElmer). […]

Assay [4] has as its system HPAC. As to the kind of experiment: CellTiter-Glo proliferation/survival assay, HPAC. Type of assay: cell-based. To be noted: Homo sapiens, 120 h, 5 days, 0.005-100 nM. Here is the method: as §1, §2, §3
Assay [5] concerns SW1271. In words: CellTiter-Glo proliferation/survival assay, SW1271. Type of assay: cell-based. To be noted: 120 h, 5 days, 0.005-100 nM. The procedure: as §1, §2, §3

Molecules are shown by their SMILES.

For the compound `CC(=O)c1c(C)c2cnc(Nc3ccc(N4CCNCC4)cn3)nc2n(C2CCCC2)c1=O` [Palbociclib, 6-Acetyl-8-cyclopentyl-5-methyl-2-{[5-(1-piperazinyl)-2-pyridinyl]amino}pyrido[2,3-d]pyrimidin-7(8H)-one], the concentration for half-maximal inhibition (IC50) in assay [1] was […]; in assay [2] it was 16 nM.

For `C=CC(=O)N1CCN(c2nc(=O)n(-c3c(C)ccnc3C(C)C)c3nc(-c4c(O)cccc4F)c(F)cc23)[C@@H](C)C1` [Sotorasib], the IC50 in assay [3], in assay [4] and in assay [5] was > 100 nM in each case.

(Values after patent US20260295067A1, “PANRAS INHIBITOR ANTIBODY-DRUG CONJUGATES AND METHODS OF USE THEREOF” (NOVARTIS AG, priority 2023, published 2026).)
